{
  "source": "paper PMC6915869",
  "about": "“Immunosuppressive effects of a novel potassium channel toxin Ktx-Sp2 from Scorpiops Pocoki” (Cell & Bioscience, 2019)",
  "key": {"[1]": {"molecular_target": "T1, mKv1.3 (Mus musculus, UniProt P16390)", "T1 construct": "expressed in transfected cells; host or cells: HEK293T, vector pIRES2-EGFP (bicistronic, EGFP not fused)", "T1 sequence (P16390 whole entry, the tested form may be a part)": "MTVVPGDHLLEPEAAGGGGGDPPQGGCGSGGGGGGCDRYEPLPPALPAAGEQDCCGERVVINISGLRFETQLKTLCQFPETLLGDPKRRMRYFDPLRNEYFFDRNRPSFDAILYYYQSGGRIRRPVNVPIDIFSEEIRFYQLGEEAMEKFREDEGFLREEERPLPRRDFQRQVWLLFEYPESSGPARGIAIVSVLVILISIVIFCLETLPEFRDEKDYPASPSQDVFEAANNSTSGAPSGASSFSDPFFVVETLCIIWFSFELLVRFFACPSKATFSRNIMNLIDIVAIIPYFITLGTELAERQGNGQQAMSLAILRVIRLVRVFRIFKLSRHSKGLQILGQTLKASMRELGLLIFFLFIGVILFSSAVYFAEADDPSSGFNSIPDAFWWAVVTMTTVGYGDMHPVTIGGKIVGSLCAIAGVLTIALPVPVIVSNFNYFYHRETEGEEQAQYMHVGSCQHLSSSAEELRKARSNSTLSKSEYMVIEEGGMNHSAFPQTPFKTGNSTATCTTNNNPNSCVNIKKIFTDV", "experiment": "Whole-cell patch-clamp, exogenous Kv1.3 in HEK293T cells", "assay_type": "cell-based", "protocol": "(§1) Mouse spinal columns were removed and placed in ice cold HBSS, then laminectomies were performed and bilateral DRG were dissected out. After removal of connective tissues, DRG were transferred to a 1 ml Ca^2+/Mg^2+-free HBSS containing 2 μl saturated NaHCO3, 0.35 mg L-cysteine and 20 U papain (Worthington, Lakewood, NJ, USA), and incubated at 37 °C for 10 min. The suspension of DRG was centrifuged, the supernatant was removed, 1 ml Ca^2+/Mg^2+-free HBSS containing 4 mg collagenase type II and 1.25 mg dispase type II (Worthington) was added and incubated at 37 °C for 10 min. After digestion, neurons were pelleted, suspended in neurobasal medium containing 2% B-27 supplement, 1% L-glutamine, 100 U/ml penicillin plus 100 μg/ml streptomycin, and 50 ng/ml nerve growth factor, plated on a 12 mm coverslip coated with poly-L-lysine (10 μg/ml) and cultured under a humidified atmosphere of 5% CO2/95% air at 37 °C for 18–24 h before use. Jurkat E6-1 T cells (ATCC TIB152) and HEK293T cells (ATCC ACS4500) were maintained in RPMI medium 1640 (Invitrogen, Carlsbad, CA, USA) and Dulbecco’s modified Eagle’s medium (DMEM) (Life Technologies,GrandIsland, NY, USA), supplemented with 10% fetal bovine serum (Life Technologies), 100 units/ml penicillin, 100 μg/ml streptomycin, respectively. Cells were cultured in a humidified incubator at 37 °C with 5% CO2. […]"}, "[2]": {"molecular_target": "T2, mKv1.2 (Mus musculus, UniProt P63141)", "T2 construct": "expressed in transfected cells; host or cells: HEK293T, vector pIRES2-EGFP (bicistronic, EGFP not fused)", "T2 sequence (P63141 whole entry, the tested form may be a part)": "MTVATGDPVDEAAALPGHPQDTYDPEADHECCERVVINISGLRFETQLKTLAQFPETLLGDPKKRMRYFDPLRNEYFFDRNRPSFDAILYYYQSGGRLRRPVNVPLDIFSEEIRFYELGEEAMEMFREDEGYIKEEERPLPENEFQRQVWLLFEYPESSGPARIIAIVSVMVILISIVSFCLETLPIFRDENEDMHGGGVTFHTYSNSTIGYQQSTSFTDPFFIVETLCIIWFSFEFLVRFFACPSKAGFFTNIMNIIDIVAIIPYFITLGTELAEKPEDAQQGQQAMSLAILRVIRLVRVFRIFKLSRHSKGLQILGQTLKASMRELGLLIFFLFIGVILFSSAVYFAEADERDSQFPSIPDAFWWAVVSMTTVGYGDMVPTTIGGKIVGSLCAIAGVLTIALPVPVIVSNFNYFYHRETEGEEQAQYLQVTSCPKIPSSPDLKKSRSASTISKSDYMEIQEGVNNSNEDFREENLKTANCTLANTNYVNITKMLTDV", "experiment": "Whole-cell patch-clamp, exogenous Kv1.2 in HEK293T cells", "assay_type": "cell-based", "protocol": "Mouse spinal columns were removed and placed in ice cold HBSS, then laminectomies were performed and bilateral DRG were dissected out. After removal of connective tissues, DRG were transferred to a 1 ml Ca^2+/Mg^2+-free HBSS containing 2 μl saturated NaHCO3, 0.35 mg L-cysteine and 20 U papain (Worthington, Lakewood, NJ, USA), and incubated at 37 °C for 10 min. The suspension of DRG was centrifuged, the supernatant was removed, 1 ml Ca^2+/Mg^2+-free HBSS containing 4 mg collagenase type II and 1.25 mg dispase type II (Worthington) was added and incubated at 37 °C for 10 min. After digestion, neurons were pelleted, suspended in neurobasal medium containing 2% B-27 supplement, 1% L-glutamine, 100 U/ml penicillin plus 100 μg/ml streptomycin, and 50 ng/ml nerve growth factor, plated on a 12 mm coverslip coated with poly-L-lysine (10 μg/ml) and cultured under a humidified atmosphere of 5% CO2/95% air at 37 °C for 18–24 h before use. Jurkat E6-1 T cells (ATCC TIB152) and HEK293T cells (ATCC ACS4500) were maintained in RPMI medium 1640 (Invitrogen, Carlsbad, CA, USA) and Dulbecco’s modified Eagle’s medium (DMEM) (Life Technologies,GrandIsland, NY, USA), supplemented with 10% fetal bovine serum (Life Technologies), 100 units/ml penicillin, 100 μg/ml streptomycin, respectively. Cells were cultured in a humidified incubator at 37 °C with 5% CO2. The cDNAs encoding mKv1.1, mKv1.2, mKv1.3, mNav1.4, mNav1.5 and mNav1.7 were subcloned into the XhoI/BamHI sites of a bicistronic vector, pIRES2-EGFP (Clontech, USA), then transiently transfected into HEK293-T cells using Lipofectamine 2000 (Invitrogen) for electrophysiological experiments.\nWhole-cell patch-clamp recordings were performed using an EPC 9 amplifier (HEKA Elektronik, Lambrecht/Pfalz, Germany) at room temperature (22–24 °C). Pipettes pulled from borosilicate glass (BF 150-86-10; Sutter Instrument Company, Novato, CA, USA) had resistances of 2–4 MΩ when filled with the internal solution. The internal pipette solution for recording Kv currents contained: KCl 140 mM, MgCl2 1 mM, EGTA 1 mM, Na2ATP 3 mM, HEPES 10 mM (pH 7.3 with KOH); for recording Na currents contained: CsCl 100 mM, CsF 40 mM, MgCl2 2 mM, HEPES 10 mM, EGTA 10 mM, D-Glucose 10 mM, Na2ATP 3 mM (pH 7.3 with CsOH). The external solution for recording Kv currents contained: KCl 5 mM, NaCl 140 mM, HEPES 10 mM, CaCl2 2 mM, MgCl2 1 mM, D-Glucose 10 mM (pH 7.4 with NaOH); for recording Na currents contained: NaCl 132 mM, KCl 5.4 mM, CaCl2 1.8 mM, MgCl2 0.8 mM, HEPES 10 mM, D-Glucose 5 mM (pH 7.4 with NaOH). Kv currents were elicited by + 50 mV, 400 ms depolarizing pulse from the holding potential of − 60 mV every 20 s, and Na currents were elicited by + 10 mV, 100 ms depolarizing pulse from the holding potential of − 60 mV every 10 s. […]"}, "[3]": {"system": "endogenous sodium channels expressed by DRG neurons", "experiment": "Whole-cell patch-clamp, endogenous sodium channels of DRG neurons", "assay_type": "cell-based, mouse", "conditions": "1 μM; +10 mV 100 ms pulse from -60 mV every 10 s", "protocol": "as §1"}, "[4]": {"system": "mNav1.4", "experiment": "Whole-cell patch-clamp, exogenous Nav1.4 in HEK293T cells", "assay_type": "cell-based", "conditions": "1 μM, +10 mV 100 ms pulse from -60 mV every 10 s", "protocol": "as §1"}, "[5]": {"system": "mNav1.5", "experiment": "Whole-cell patch-clamp, exogenous Nav1.5 in HEK293T cells", "assay_type": "cell-based", "conditions": "1 μM, +10 mV 100 ms pulse from -60 mV every 10 s", "protocol": "as §1"}, "[6]": {"system": "IL-2 secretion from Jurkat T cells", "experiment": "IL-2 secretion from ConA-activated Jurkat T cells (ELISA)", "assay_type": "cell-based, human", "conditions": "ConA 10 μg/ml; for ConA-induced IL-2 secretion (in words): Ktx-Sp2 10 nM, 100 nM, 1 μM and 10 μM, 24 h, ELISA at 450 nm, n = 6, ***P < 0.0001", "protocol": "IL-2 secretion from Jurkat T cells was measured using an ELISA kit (eBioscience, San Diego, CA, USA) following manufacturer’s instructions. Cells were centrifuged at 1500 rpm for 10 min, and the supernatants were collected to measure IL-2 concentrations. Reactions were performed in 96-well plates coated with the capture antibody and stopped with phosphoric acid (1 M). Absorbance was measured at 450 nm. Each experiment was repeated at least three times in duplicate.\nThe cytokine IL-2 is predominantly secreted from activated T cells and is critical in regulating the balance between immune tolerance and autoimmunity. The secretion of IL-2 is driven by a rise of [Ca^2+]i. Since Ktx-Sp2 potently suppresses Kv1.3 function and decreases Ca^2+ influx in Jurkat T cells we next asked whether Ktx-Sp2 could inhibit IL-2 secretion, which should result in functional immunosuppression. As a classical polyclonal stimulator acting through T-cell receptor complex (TCR)-CD3 complex, ConA has been used to induce T cell activation and stimulate IL-2 secretion, which is dependent on an increase of [Ca^2+]i. We thus used the ConA-stimulated IL-2 secretion in the growth media as readout.\nFig. 6 Ktx-Sp2 inhibits IL-2 secretion from activated Jurkat T cells. The concentrations of IL-2 in cell growth media were measured by ELISA. Jurkat T cells were activated by ConA (10 μg/ml) for 24 h. Ktx-Sp2 (10 nM, 100 nM, 1 μM and 10 μM) were added simultaneously with ConA. ***P < 0.0001, n = 6"}},
  "note": "“Also recorded” adds a separate entry of the source. Bridge positions count the residues as written; N and C are the ends. Peptide text beside a SMILES is read from it.",
  "data": [
    {"smiles": "CSCC[C@@H]1NC(=O)[C@@H]2CSSC[C@H](NC(=O)[C@H](CCCCN)NC(=O)[C@H](C)NC(=O)CNC(=O)[C@H](Cc3c[nH]cn3)NC(=O)[C@H](CC(C)C)NC(=O)[C@@H]3CCCN3C(=O)[C@@H](N)CO)C(=O)N[C@@H](CO)C(=O)N[C@@H](CO)C(=O)N[C@@H](CO)C(=O)N[C@@H](CC(N)=O)C(=O)N[C@@H](CCC(N)=O)C(=O)N[C@H]3CSSC[C@H](NC(=O)[C@H](CCCNC(=N)N)NC(=O)CNC(=O)[C@H](CC(N)=O)NC1=O)C(=O)N[C@@H](CCCNC(=N)N)C(=O)N[C@H](C(=O)N[C@@H](Cc1ccc(O)cc1)C(=O)NCC(=O)O)CSSC[C@H](NC(=O)[C@@H]1CCCN1C(=O)[C@H](CCCNC(=N)N)NC(=O)[C@H]([C@@H](C)O)NC3=O)C(=O)N[C@@H](CCCNC(=N)N)C(=O)N[C@@H](Cc1ccc(O)cc1)C(=O)NCC(=O)NCC(=O)NCC(=O)N[C@@H]([C@@H](C)O)C(=O)N[C@@H](Cc1c[nH]cn1)C(=O)NCC(=O)N[C@@H](CCCCN)C(=O)N2", "note": "[Ktx-Sp2] (H-SPLHGAKCSSSNQCTRPCRYGGGTHGKCMNGRCRCYG-OH; disulfide 8-28, 14-33, 18-35 (inferred); N-terminus and C-terminus assumed)", "values": [
      {"measurement": "IC50", "setting": "[1]; +50 mV 400 ms pulse from -60 mV every 20 s, room temperature (22–24 °C), mean ± SEM, n = 8, read-out: IC50 for mKv1.3-mediated currents", "result": "14.7 ± 1.98", "unit": "nM"},
      {"measurement": "blocking of Kv1.3 (in words)", "setting": "[1]; exogenous channel", "result": "the blocking activity for Kv1.3 was relatively high; also recorded: the blocking activity on Kv1.3 channel is the strongest"},
      {"measurement": "IC50", "setting": "[2]; +50 mV 400 ms pulse from -60 mV every 20 s, room temperature (22–24 °C), mean ± SEM", "result": "56.9 ± 2.32", "unit": "nM"},
      {"measurement": "blocking activity on Kv1.3 relative to Kv1.2 (Discussion)", "setting": "[2]; Discussion section", "result": 4, "unit": "times"},
      {"measurement": "blocking activity on Kv1.2 channel (rounded, Discussion)", "setting": "[2]; electrophysiology", "result": "about 57 nM"},
      {"measurement": "blocking of Kv1.2 (in words)", "setting": "[2]; exogenous channel", "result": "effectively block; also recorded: high blocking activity"},
      {"measurement": "effect on endogenous sodium channels of DRG neurons", "setting": "[3]", "result": "almost had no effect"},
      {"measurement": "effect on Nav1.4", "setting": "[4]", "result": "almost had no effect"},
      {"measurement": "effect on Nav1.5", "setting": "[5]", "result": "almost had no effect"},
      {"measurement": "activation of Jurkat T cells (in words)", "setting": "[6]", "result": "inhibit the activation of Jurkat T cells"},
      {"measurement": "activation of Jurkat T cells (in words)", "setting": "[6]; listed as Ktx-sp2", "result": "inhibiting the activation effect of ConA on Jurkat T cells"},
      {"measurement": "ConA-induced IL-2 secretion (in words)", "setting": "[6]", "result": "reduce the release of inflammatory cytokines IL-2; also recorded: significantly reduced ConA-induced IL-2 secretion in a concentration-dependent manner"},
      {"measurement": "ConA-induced IL-2 secretion (in words)", "setting": "[6]; listed as Ktx-sp2", "result": "significantly reducing the release of inflammatory cytokine IL-2"}
    ]}
  ]
}
